Patent US9060981B2, “Marker associated with non-alcoholic steatohepatitis” (MOCHIDA PHARMACEUTICAL CO., LTD., priority 2009, dated 2015)
“Also recorded” adds a separate entry of the source.

Key:
B6 mice = assay: Fatty liver in B6 mice raised 20 weeks on high fat/high sugar diet; type: in vivo, mouse; conditions: high fat/high sugar diet + 5% EPA-E, free feeding, 20 weeks (group III)
Description: B6 mice (10 week old) were divided into control group (I), HF-HS group (II), and EPA group (III) (n=7 to 10), and the mice were raised for 20 weeks by free feeding of the following diet.

[1] = tested on: second factor group genes in the liver; assay: Gene microarray analysis of the liver of mice on high fat/high sugar diet; type: in vivo, mouse; conditions: EPA group vs HF-HS group, 20 weeks
Description: (2) Next, expression of genes in the liver was compared in 3 groups, namely, the control group fed with normal diet, the HF-HS group, and the EPA group. […] (A) HF-HS group/control group ≧2 and EPA group/HF-HS group ≦0.5. (B) HF-HS group/control group ≦0.5 and EPA group/HF-HS group ≧2. Liver was extirpated from the mice of each group, and RNA was extracted by homogenization to conduct gene microarray analysis of the liver. The genes were selected as described below. (1) Genes with group II/group I expression ratio of 2 or higher and group III/group II expression ratio of up to 1/2 were selected. (2) Genes with the group II/group I expression ratio of up to 1/2 and the group III/group II ratio of 2 or more were selected. […] (4) Genes which are (1) but not (3) were selected. (5) Genes which are (2) but not (3) were selected. Next, factors with the possibility of protein secretion into blood were selected from the genes (4), and then, genes satisfying any of relevance with lipid metabolism, relevance with inflammation, increase of expression in the liver of SREBP transgenic mouse were selected from these genes. Genes were selected from the genes (5) by conducting the procedure corresponding to (6).

NASH model rats = conditions: telmisartan administered for 10 weeks; cited from earlier work

Compound	fatty liver (B6 mice)	group III/group II expression ratio, second factor (A) group genes ([1]; genes with group II/group I ratio of 2 or higher (Table 2))	group III/group II expression ratio, second factor (B) group genes ([1]; genes with group II/group I ratio of up to 1/2 (Table 3))	expression of TIMP1 and TIMP2 mRNAs in the liver tissue (NASH model rats)	liver fibrosis (NASH model rats)
CC/C=C\C/C=C\C/C=C\C/C=C\C/C=C\CCCC(=O)OCC [EPA-E, ethyl icosapentate]	fatty liver was not observed; also recorded: fatty liver was not induced	up to 1/2	≥ 2		
CCCc1nc2c(C)cc(-c3nc4ccccc4n3C)cc2n1Cc1ccc(-c2ccccc2C(=O)O)cc1 [telmisartan]				decrease	suppression; also recorded: suppressed
